Assay results from patent US11207312B2, “Metallo-beta-lactamase inhibitors and methods of use thereof” (priority 2017, dated 2021).

Key:
[1] = target: NDM-1 (Klebsiella pneumoniae, UniProt C7C422); experiment: biochemical; assay type: biochemical; details: CCF2-FA fluorescence assay, 2 hours at 25° C.
Summary of the method: (§1)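 Buffer 100 mM KH2PO4 pH 7, 0.005% Tween-20, 10 μM ZnSO4. NDM-1 1 pM, IMP-1 2 pM, VIM-1 30 pM final; CCF2-FA 1.25 μM. Cpd 20–0.00063 μM, 2 h, 25° C. Ex 405/Em 460 nm; IC50 via 4-parameter curve.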

[2] = target: VIM-2 (Escherichia coli, UniProt Q5U7L7); experiment: biochemical; details: CCF2-FA fluorescence assay; read-out: VIM2 IC50
[3] = system: P. aeruginosa MB9799 (efflux-, IMP-1 plasmid); assay type: cell-based, Pseudomonas aeruginosa; details: efflux − (MB9799) strain; imipenem at 2 μg/mL; in the presence of a class A, C, D serine β-lactamase inhibitor closely related to relebactam
Summary of the method: (§2)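 PAO1-derived isogenic pair (oprD+, inducible AmpC), efflux+ MB5919 or efflux− MB5890 parent, carrying an electroporated IMP-1 plasmid from a clinical isolate. Microbroth MIC with fixed imipenem and/or ceftazidime (usually CLSI breakpoint) plus fixed class A/C inhibitor; MBL inhibitor serially titrated, concentration restoring susceptibility recorded.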

[4] = target: IMP-1 (Serratia marcescens, UniProt P52699); experiment: biochemical; details: CCF2-FA fluorescence assay, 2 hours at 25° C.; read-out: IMP1 IC50
Summary of the method: as §1

[5] = target: VIM-1 (Pseudomonas aeruginosa (strain ATCC 15692 / DSM 22644 / CIP 104116 / JCM 14847 / LMG 12228 / 1C / PRS 101 / PAO1), UniProt A0A0F7KYQ8); experiment: biochemical; details: CCF2-FA fluorescence assay, 2 hours at 25° C.; read-out: VIM1 IC50
Summary of the method: as §1

[6] = system: Escherichia coli expressing NDM-1 (CLB30016); assay type: cell-based; details: with imipenem 1 μg/ml; 95% inhibition of bacterial growth
Summary of the method: (§3)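 MITC95 denotes the minimal test-compound level that, combined with 1 μg/ml imipenem, blocks 95% of bacterial growth, measured by absorbance. Overnight-grown clinical isolates were diluted 1:100 in CAMHB and incubated with both agents at 35° C for 22–24 h.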

[7] = system: Klebsiella pneumoniae expressing VIM-1 (IHMA599644); assay type: cell-based; details: with imipenem 1 μg/ml; 95% inhibition of bacterial growth
Summary of the method: as §3

[8] = system: Serratia marcescens expressing IMP-1 (CL5741); assay type: cell-based; details: with imipenem 1 μg/ml; 95% inhibition of bacterial growth
Summary of the method: as §3

[9] = system: P. aeruginosa MB9798 (efflux+, IMP-1 plasmid); details: for MB9798 MITC95 P. aeruginosa uM Efflux WT: efflux + (MB9798) strain, imipenem at 2 μg/mL, in the presence of a class A, C, D serine β-lactamase inhibitor closely related to relebactam; for Efflux ratio: fold difference between efflux+ (MB9798) and efflux− (MB9799) strains
Summary of the method: as §2

Chain of NDM-1 (C7C422 whole entry, looked up, species assumed): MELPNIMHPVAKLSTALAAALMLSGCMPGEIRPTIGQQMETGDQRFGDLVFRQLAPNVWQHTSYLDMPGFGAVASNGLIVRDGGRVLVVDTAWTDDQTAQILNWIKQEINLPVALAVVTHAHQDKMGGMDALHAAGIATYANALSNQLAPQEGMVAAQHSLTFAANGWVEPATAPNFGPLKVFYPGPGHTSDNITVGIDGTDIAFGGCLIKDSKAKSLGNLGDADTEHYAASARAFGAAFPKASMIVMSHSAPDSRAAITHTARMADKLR
Chain of IMP-1 (P52699 whole entry, looked up, species assumed): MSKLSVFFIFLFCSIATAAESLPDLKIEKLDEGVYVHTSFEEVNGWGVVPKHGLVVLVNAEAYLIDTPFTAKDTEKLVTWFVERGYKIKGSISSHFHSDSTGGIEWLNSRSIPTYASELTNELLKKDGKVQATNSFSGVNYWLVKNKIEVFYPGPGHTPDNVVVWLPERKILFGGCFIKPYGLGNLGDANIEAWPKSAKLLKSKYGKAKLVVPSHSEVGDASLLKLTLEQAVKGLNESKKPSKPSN

Structure (SMILES)	IC50 [1] [nM]	IC50 [2] [nM]	MB9799 MITC95 P. aeruginosa uM Efflux Mutant [3] [µM]	IC50 [4] [nM]	IC50 [5] [nM]	CLB30016 E. coli MITC95 NDM [6] [µM]	IHMA599644 K. pneumoniae MITC95 VIM [7] [µM]	CL5741 S. marcescens MITC95 IMP [8] [µM]	MB9798 MITC95 P. aeruginosa uM Efflux WT [9] [µM]	Efflux ratio [9]
NC[C@@H](O)CNS(=O)(=O)c1ccc(N2CC[C@@H](CN)[C@@H](F)C2)c(-c2nn[nH]n2)c1S(N)(=O)=O (racemic) [Example 6]	1.12	4.19	0.39	3.38	0.17	0.20	0.78	0.20	0.78	2.00
NCCNS(=O)(=O)c1ccc(N2CCC(CN)CC2)c(-c2nnn[nH]2)c1S(N)(=O)=O [Example 35, N1-(2-aminoethyl)-4-(4-(aminomethyl)piperidin-1-yl)-3-(1H-tetrazol-5-yl)benzene-1,2-disulfonamide]	3.6	6.69	0.78	5.1	0.32	0.39	3.13	0.78	0.78	1.00
NC[C@@H](O)CNS(=O)(=O)c1ccc(N2CCNC(CO)C2)c(-c2nn[nH]n2)c1S(N)(=O)=O (stereo partly drawn) [Example 122, N1-((R)-3-amino-2-hydroxypropyl)-4-(3-(hydroxymethyl)piperazin-1-yl)-3-(2H-tetrazol-5-yl)benzene-1,2-disulfonamide]	14.3	6.86	0.78	24.4	3.34	0.20	0.78	0.39	1.56	2.00
NCCOC1CCN(c2ccc(S(=O)(=O)NC[C@H](O)CN)c(S(N)(=O)=O)c2-c2nn[nH]n2)CC1 [Example 209, (R)—N1-(3-amino-2-hydroxypropyl)-4-(4-(2-aminoethoxy)piperidin-1-yl)-3-(2H-tetrazol-5-yl)benzene-1,2-disulfonamide]	0.96	3.32	0.78	1.69	0.12	0.78	1.56	1.56	0.78	1.00
N[C@H]1CCN(c2ccc(S(=O)(=O)N[C@@H]3CCNC3)c(S(N)(=O)=O)c2-c2nn[nH]n2)C[C@H]1F [Example 199, 4-((3R,4S)-4-amino-3-fluoropiperidin-1-yl)-N1-((R)-pyrrolidin-3-yl)-3-(2H-tetrazol-5-yl)benzene-1,2-disulfonamide]	1.69	4.27	0.78	6.11	0.18	0.39	0.39	0.10	0.78	1.00
NS(=O)(=O)c1c(S(=O)(=O)N[C@@H]2CCNC2)ccc(N2CCN(CCCO)CC2)c1-c1nnn[nH]1 [Example 93, 4-[4-(3-hydroxypropyl)piperazin-1-yl]-N1-[(3R)-pyrrolidin-3-yl]-3-(1H-tetrazol-5-yl)benzene-1,2-disulfonamide]	1.71	6.73	1.56	2.52	3.62	0.39	1.56	0.20	3.13	2.00
CC(N)C1CCN(c2ccc(S(=O)(=O)NC[C@H](O)CN)c(S(N)(=O)=O)c2-c2nnn[nH]2)CC1 (stereo partly drawn) [Example 50, N1-((R)-3-amino-2-hydroxypropyl)-4-(4-(1-aminoethyl)piper-idin-1-yl)-3-(1H-tetrazol-5-yl)benzene-1,2-disulfonamide]	4.14	4.12	0.39	2.11	0.15	0.39	0.78	0.78	0.78	2.00
NC[C@@H](O)CNS(=O)(=O)c1ccc(N[C@@H]2CCC[C@H]2N)c(-c2nn[nH]n2)c1S(N)(=O)=O [Example 179, N1-((R)-3-amino-2-hydroxypropyl)-4-(((1R,2R)-2-aminocyclopentyl)amino)-3-(2H-tetrazol-5-yl)benzene-1,2-disulfonamide]	26.2	83.1	6.25	69.2	49.9	0.78	12.50	6.25	25.00	4.00
NC/C=C1\CCCN(c2ccc(S(=O)(=O)NC[C@H](O)CN)c(S(N)(=O)=O)c2-c2nn[nH]n2)C1 (single isomer, unassigned; isomer b) [Example 206]	9.21	1.52	1.56	15.1	0.23	0.78	1.56	1.56	6.25	4.00
NS(=O)(=O)c1c(S(=O)(=O)C2CNC2)ccc(N2C[C@H](O)C[C@@H](O)C2)c1-c1nnn[nH]1 [Example 55, 6-(azetidin-3-ylsulfonyl)-3-[(3R,5R)-3,5-dihydroxypiperidin-1-yl]-2-(1H-tetrazol-5-yl)benzenesulfonamide]	51.5	145	6.25	200	62.3	1.56	12.50	12.50	100.00	16.00
NCC1CCN(c2ccc(S(=O)(=O)NC[C@@H](N)CN)c(S(N)(=O)=O)c2-c2nn[nH]n2)CC1 [Example 200, (S)-4-(4-(aminomethyl)piperidin-1-yl)-N1-(2,3-diaminopropyl)-3-(2H-tetrazol-5-yl)benzene-1,2-disulfonamide]	3.1	8.28	50.00	4.57	0.51	0.78	3.13	1.56	50.00	1.00
CC1CC(CN)CCN1c1ccc(S(=O)(=O)NC[C@H](O)CN)c(S(N)(=O)=O)c1-c1nn[nH]n1 (stereo partly drawn) [Example 4, N1-((R)-3-amino-2-hydroxypropyl)-4-(4-(aminomethyl)-2-methylpiperidin-1-yl)-3-(2H-tetrazol-5-yl)benzene-1,2-disulfonamide]	2.17	2.4	0.78	9.4	0.18	3.13	3.13	1.56	1.56	2.00
NCC(O)C1CCN(c2ccc(S(=O)(=O)NC[C@H](O)CN)c(S(N)(=O)=O)c2-c2nn[nH]n2)CC1 (stereo partly drawn) [Example 132, 4-(4-(2-amino-1-hydroxyethyl)piperidin-1-yl)-N1-((R)-3-amino-2-hydroxypropyl)-3-(2H-tetrazol-5-yl)benzene-1,2-disulfonamide]	1.34	4.28	0.78	2.49	0.19	0.39	1.56	0.78	0.78	1.00
